Here are results for one molecule from article PMC5765548 (Journal of medicinal chemistry, 2017).

One test deals with T1, ALDH3A1 (Homo sapiens, UniProt P30838).
T1 sequence (P30838 1-453): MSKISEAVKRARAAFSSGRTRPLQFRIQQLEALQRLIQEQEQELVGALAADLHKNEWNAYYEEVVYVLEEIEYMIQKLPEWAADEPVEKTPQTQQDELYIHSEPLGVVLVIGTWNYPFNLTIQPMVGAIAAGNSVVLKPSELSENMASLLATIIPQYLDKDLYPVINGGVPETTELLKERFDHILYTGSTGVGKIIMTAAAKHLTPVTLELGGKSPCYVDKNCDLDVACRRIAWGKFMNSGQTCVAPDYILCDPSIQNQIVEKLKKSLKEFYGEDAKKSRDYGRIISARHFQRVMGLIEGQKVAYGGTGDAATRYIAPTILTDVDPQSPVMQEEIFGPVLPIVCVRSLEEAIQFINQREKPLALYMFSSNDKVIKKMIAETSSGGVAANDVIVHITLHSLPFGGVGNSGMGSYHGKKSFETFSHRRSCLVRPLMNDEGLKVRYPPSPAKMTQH
Description: ALDH3A1 dehydrogenase activity. It counts as biochemical. The following applies: read-out: IC50 ALDH3A1; 300 μM benzaldehyde, 300 μM NADP+, pH 7.5.

For test [1], the target named is T2, ALDH2 (Homo sapiens, UniProt P05091).
T2 sequence (P05091 18-517): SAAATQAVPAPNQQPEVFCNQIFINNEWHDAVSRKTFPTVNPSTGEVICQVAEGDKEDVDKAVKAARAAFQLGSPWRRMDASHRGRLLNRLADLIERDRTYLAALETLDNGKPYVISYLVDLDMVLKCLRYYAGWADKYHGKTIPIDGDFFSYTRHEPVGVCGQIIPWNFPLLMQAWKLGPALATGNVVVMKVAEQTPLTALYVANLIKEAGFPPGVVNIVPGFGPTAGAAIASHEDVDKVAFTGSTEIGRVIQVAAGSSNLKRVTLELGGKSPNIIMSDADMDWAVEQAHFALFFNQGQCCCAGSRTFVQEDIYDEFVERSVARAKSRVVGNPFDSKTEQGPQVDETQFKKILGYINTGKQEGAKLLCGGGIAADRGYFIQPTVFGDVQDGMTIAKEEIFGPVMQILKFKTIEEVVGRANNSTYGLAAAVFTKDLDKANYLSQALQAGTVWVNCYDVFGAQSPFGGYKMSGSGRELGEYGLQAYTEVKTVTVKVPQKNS
The following applies: 1 mM propionaldehyde.

Test [2] has as its target T2, ALDH2. The following applies: prior work; cited from earlier work.
The target in a further test is T3, ALDH1L1 (rat) (Rattus norvegicus, UniProt P28037).
T3 sequence (P28037 1-902): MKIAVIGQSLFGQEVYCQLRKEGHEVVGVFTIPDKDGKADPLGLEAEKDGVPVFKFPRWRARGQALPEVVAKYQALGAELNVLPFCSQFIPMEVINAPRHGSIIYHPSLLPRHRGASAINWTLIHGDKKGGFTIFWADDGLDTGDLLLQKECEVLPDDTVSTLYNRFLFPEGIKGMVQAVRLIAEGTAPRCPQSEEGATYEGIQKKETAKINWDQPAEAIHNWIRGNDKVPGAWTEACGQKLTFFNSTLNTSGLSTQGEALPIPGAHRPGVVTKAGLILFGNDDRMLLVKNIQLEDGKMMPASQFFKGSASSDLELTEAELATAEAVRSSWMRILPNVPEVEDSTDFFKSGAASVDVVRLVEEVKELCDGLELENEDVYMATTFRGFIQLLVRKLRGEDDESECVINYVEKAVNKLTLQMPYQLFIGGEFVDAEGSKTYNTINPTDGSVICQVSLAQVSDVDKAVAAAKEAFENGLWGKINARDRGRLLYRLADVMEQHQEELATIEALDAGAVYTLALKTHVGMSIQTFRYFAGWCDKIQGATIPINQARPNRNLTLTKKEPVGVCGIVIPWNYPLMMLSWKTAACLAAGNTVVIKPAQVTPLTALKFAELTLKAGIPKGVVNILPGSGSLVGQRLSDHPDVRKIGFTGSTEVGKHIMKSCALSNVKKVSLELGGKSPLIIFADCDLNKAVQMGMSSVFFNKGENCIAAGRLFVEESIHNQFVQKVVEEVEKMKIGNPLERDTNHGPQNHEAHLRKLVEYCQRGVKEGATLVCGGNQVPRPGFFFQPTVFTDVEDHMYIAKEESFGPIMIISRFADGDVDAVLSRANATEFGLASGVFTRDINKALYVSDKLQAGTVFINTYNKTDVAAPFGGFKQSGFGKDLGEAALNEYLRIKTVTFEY
Description: ALDH1L1 dehydrogenase activity, NADPH formation at 340 nm. It counts as biochemical. The following applies: read-out: IC50 ALDH1L1 (rat); 4 mM propionaldehyde, 500 μM NADP+.

For the next test, the target named is T4, ALDH1A1 (Homo sapiens, UniProt P00352).
T4 sequence (P00352 1-501): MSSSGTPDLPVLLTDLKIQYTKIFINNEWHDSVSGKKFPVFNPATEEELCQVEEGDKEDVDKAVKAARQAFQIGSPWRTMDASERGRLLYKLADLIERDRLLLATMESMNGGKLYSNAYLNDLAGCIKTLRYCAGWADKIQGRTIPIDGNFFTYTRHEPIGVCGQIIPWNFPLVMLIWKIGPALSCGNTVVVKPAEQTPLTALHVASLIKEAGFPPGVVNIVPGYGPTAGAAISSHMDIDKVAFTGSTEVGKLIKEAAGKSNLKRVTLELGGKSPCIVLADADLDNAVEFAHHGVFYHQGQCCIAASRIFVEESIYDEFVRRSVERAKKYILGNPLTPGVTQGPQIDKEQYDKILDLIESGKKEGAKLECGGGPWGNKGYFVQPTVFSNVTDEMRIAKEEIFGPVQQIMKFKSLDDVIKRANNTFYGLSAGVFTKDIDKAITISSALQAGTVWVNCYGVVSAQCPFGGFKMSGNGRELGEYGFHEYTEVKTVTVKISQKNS
Description: ALDH1A1 dehydrogenase activity, NADH formation at 340 nm. The following applies: read-out: IC50 ALDH1A1; 100 μM propionaldehyde, 200 μM NAD+, 1% DMSO, pH 7.5, 25 °C. It counts as biochemical.

With `Cc1oc2cc3oc(=O)c(C)c(C)c3cc2c1C` [Compound 3], the IC50 on ALDH3A1, at ALDH1L1 (rat) and on ALDH1A1 was more than 100 µM throughout. On ALDH2 [1], the “Mode of inhibition of ALDH2 versus varied NAD+” value is recorded as “competitive”. The “Mode of inhibition of ALDH2 with respect to varied propionaldehyde” value at ALDH2 [2] is given as “non-competitive (mixed-type)”.

Usually IC50 stands for the midpoint of a concentration-inhibition curve.
